Read-outs that look alike come from different tables or passages of the source.
Columns and labels:
MAO-A [1] = biological target: T1, MAO-A (Rattus norvegicus, UniProt P21396)
Method: (§1) The animals were acutely administered and sacrificed 4 hours following drug/vehicle administration. The brain regions, hippocampus and striatum, as well as the small intestine were dissected out. All tissues were frozen at −80° C. for further analysis.

MAO-B [2] = biological target: T2, MAO-B (Rattus norvegicus, UniProt P19643); conditions: both regimens (intranasal and oral), 0.24 and 0.6 mg/Kg, p<0.05, data not shown
Method: as §1

[3] = tested on: pressor responses to oral tyramine; conditions: rats, cited from earlier work
MAO-A [4] = biological target: T1, MAO-A; assay: in vivo; conditions: for inhibition at 6 mg/kg / inhibition at 0.6 mg/kg / inhibition at 1.5 mg/kg: rat, inhaled or nasal
Method: (§2) Control liquid formulations included vehicle only.
(§3) The animals were acutely administered intranasally and sacrificed 4 hours following drug/vehicle administration. The brain regions, hippocampus and striatum, as well as the small intestine were dissected out. […] In brief, samples were dissected out at 4° C. and homogenized. Homogenates were incubated with [C^14]serotonin for 30 minutes (final concentration 100 μM) as a substrate for MAO-A, or with [C^14]phenylethylamine for 20 minutes (final concentration 100 μM) as a substrate for MAO-B. The radioactivity was determined by liquid- scintillation.

MAO-B [5] = biological target: T2, MAO-B; assay: in vivo
Method: as §2, §3

MAO-A [6] = biological target: T1, MAO-A; conditions: 0.3 mg/kg, 1 hour after treatment
Description: (§4) Adult (3-month old) male Sprague Dawley rats, weighing about 250 grams, were from Harlan Laboratories, Inc Israel.

MAO-B [7] = biological target: T2, MAO-B; conditions: 0.1 and 0.3 mg/kg, 1 hour after treatment
Description: as §4

[8] = extensive first pass hepatic metabolism; cited from earlier work

T2 sequence (P19643 whole entry): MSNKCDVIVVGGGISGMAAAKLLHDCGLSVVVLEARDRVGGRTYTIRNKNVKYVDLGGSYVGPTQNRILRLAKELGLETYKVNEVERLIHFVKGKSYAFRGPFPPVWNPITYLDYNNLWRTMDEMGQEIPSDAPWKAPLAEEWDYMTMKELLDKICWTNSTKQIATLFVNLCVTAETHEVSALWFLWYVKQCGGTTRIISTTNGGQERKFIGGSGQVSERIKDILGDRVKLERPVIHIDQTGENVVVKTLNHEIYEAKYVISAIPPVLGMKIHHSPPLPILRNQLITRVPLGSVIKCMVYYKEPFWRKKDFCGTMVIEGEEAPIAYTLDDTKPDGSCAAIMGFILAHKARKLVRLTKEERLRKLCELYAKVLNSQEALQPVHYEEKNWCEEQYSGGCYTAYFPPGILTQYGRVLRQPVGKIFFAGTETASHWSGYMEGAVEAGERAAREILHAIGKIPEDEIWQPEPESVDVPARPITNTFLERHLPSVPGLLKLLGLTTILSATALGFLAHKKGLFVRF
T1 sequence (P21396 whole entry): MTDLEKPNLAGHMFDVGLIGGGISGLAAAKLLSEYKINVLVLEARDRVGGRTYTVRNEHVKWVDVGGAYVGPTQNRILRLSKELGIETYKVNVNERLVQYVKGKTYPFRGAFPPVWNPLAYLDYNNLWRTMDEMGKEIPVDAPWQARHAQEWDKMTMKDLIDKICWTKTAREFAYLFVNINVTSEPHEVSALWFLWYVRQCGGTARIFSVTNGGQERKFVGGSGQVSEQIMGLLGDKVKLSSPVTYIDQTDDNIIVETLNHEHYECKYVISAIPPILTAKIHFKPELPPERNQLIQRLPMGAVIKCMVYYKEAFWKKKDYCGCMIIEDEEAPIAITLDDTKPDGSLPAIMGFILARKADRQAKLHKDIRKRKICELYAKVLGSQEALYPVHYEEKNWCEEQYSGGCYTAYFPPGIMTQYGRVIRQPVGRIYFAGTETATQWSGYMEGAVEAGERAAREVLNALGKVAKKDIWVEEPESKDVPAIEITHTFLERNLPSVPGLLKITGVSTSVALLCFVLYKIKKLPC

In the case of `C#CCN[C@@H]1CCc2ccccc21` [Rasagiline, N-propargyl-1-(R)-aminoindan], the “MAO-A inhibition in striatum and hippocampus, intranasal (powder) compared to oral” value (MAO-A [1]; 0.24 and 0.6 mg/Kg, 4 h, FIGS. 8A-B) is reported as “significantly increased”, the “MAO-A inhibition in the periphery (small intestine), intranasal compared to P.O.” value (MAO-A [1]; 0.24 and 0.6 mg/kg, FIG. 9) is reported as “significantly lower” and the “MAO-B activity inhibition in striatum and hippocampus” value (MAO-B [2]) is reported as “about 99%”. The “cheese reaction (MAO-A and MAO-B both inhibited)” value ([3]; 10 mg/kg oral dose) was “induces the “cheese reaction””, the “potentiation of pressor responses to oral tyramine” value ([3]; 21 days chronic treatment, oral doses up to 2 mg/kg daily) was “does not potentiate” and the “potentiation of pressor responses to oral tyramine” value ([3]; single oral doses up to 5 mg/kg) was “does not potentiate”. For the same compound, the “MAO-A activity in striatum and hippocampus, dose dependence” value (MAO-A [4]; intranasal powder formulation, 0.24, 0.6, 1.5 and 6 mg/kg, FIG. 6) was “dose-dependently inhibited”, the “striatal MAO-A inhibition, powder compared to liquid formulation” value (MAO-A [4]; intranasal, 0.6 mg/kg, FIG. 5) was “significant higher inhibition” and the inhibition at 6 mg/kg (MAO-A [4]; read-out: MAO-A inhibition in striatum and hippocampus, intranasal, 6 mg/kg powder formulation) was greater than 90%. For the same compound, the inhibition at 0.6 mg/kg (MAO-A [4]; read-out: MAO-A inhibition, Brain, intranasal, 0.6 mg/kg liquid formulation, 4 h) was 33%, the inhibition at 0.6 mg/kg (MAO-A [4]; read-out: MAO-A inhibition, Brain, intranasal, 0.6 mg/kg powder formulation, 4 h) was 44% and the inhibition at 6 mg/kg (MAO-A [4]; read-out: MAO-A inhibition, Brain, intranasal, 6 mg/kg liquid formulation, 4 h) was 91%. For the same compound, the inhibition at 1.5 mg/kg (MAO-A [4]; read-out: MAO-A inhibition, Hippocampus, intranasal, 1.5 mg/kg powder formulation, 4 h) was 86%, the inhibition at 0.6 mg/kg (MAO-A [4]; read-out: MAO-A inhibition, Intestine, intranasal, 0.6 mg/kg liquid formulation, 4 h) was 32% and the inhibition at 0.6 mg/kg (MAO-A [4]; read-out: MAO-A inhibition, Intestine, intranasal, 0.6 mg/kg powder formulation, 4 h) was 42%. For the same compound, the inhibition at 1.5 mg/kg (MAO-A [4]; read-out: MAO-A inhibition, Intestine, intranasal, 1.5 mg/kg powder formulation, 4 h) was 74%, the inhibition at 6 mg/kg (MAO-A [4]; read-out: MAO-A inhibition, Intestine, intranasal, 6 mg/kg liquid formulation, 4 h) was 86% and the inhibition at 6 mg/kg (MAO-A [4]; read-out: MAO-A inhibition, Intestine, intranasal, 6 mg/kg powder formulation, 4 h) was 92%. The inhibition at 0.6 mg/kg (MAO-A [4]; read-out: MAO-A inhibition, Liver, intranasal, 0.6 mg/kg liquid formulation, 4 h) was 19%, the inhibition at 0.6 mg/kg (MAO-A [4]; read-out: MAO-A inhibition, Liver, intranasal, 0.6 mg/kg powder formulation, 4 h) was 44% and the inhibition at 6 mg/kg (MAO-A [4]; read-out: MAO-A inhibition, Liver, intranasal, 6 mg/kg liquid formulation, 4 h) was 83%. For the same compound, the inhibition at 0.6 mg/kg (MAO-A [4]; read-out: MAO-A inhibition, Striatum, intranasal, 0.6 mg/kg powder formulation, 4 h) was 61%, the inhibition at 6 mg/kg (MAO-A [4]; read-out: MAO-A inhibition, Striatum, intranasal, 6 mg/kg powder formulation, 4 h) was 98% and the “MAO-B activity inhibition in striatum and hippocampus” value (MAO-B [5]; intranasal, 0.24 to 6 mg/kg, both powder and liquid formulations, p<0.05 vs vehicle) was “about 98%”. For the same compound, the inhibition at 0.6 mg/kg (MAO-B [5]; rat, inhaled or nasal, read-out: MAO-B Inhibition, Intestine, intranasal, 0.6 mg/kg liquid formulation, 4 h) was 63%, the inhibition at 0.6 mg/kg (MAO-B [5]; rat, inhaled or nasal, read-out: MAO-B Inhibition, Intestine, intranasal, 0.6 mg/kg powder formulation, 4 h) was 68% and the inhibition at 1.5 mg/kg (MAO-B [5]; rat, inhaled or nasal, read-out: MAO-B Inhibition, Intestine, intranasal, 1.5 mg/kg powder formulation, 4 h) was 72%. For the same compound, the inhibition at 6 mg/kg (MAO-B [5]; rat, inhaled or nasal, read-out: MAO-B Inhibition, Intestine, intranasal, 6 mg/kg liquid formulation, 4 h) was 75%, the inhibition at 6 mg/kg (MAO-B [5]; rat, inhaled or nasal, read-out: MAO-B Inhibition, Intestine, intranasal, 6 mg/kg powder formulation, 4 h) was 78% and the “brain MAO-A inhibition, NAS delivery compared to IP” value (MAO-A [6]; FIG. 1) was “significantly inhibited”. The “liver MAO-A inhibition, IP compared to NAS delivery” value (MAO-A [6]; FIG. 3) was “significantly inhibited”, the “difference in brain MAO-B inhibition between IP and NAS” value (MAO-B [7]; FIG. 2) was “no significant difference” and the “differences in liver MAO-B inhibition between IP and NAS” value (MAO-B [7]; FIG. 4) was “No significant differences”.

For `C#CCN(C)[C@H](C)Cc1ccccc1` [Selegiline, (R)-N-methyl-N-(1-phenylpropan-2-yl)prop-1-yn-3-amine], the oral bioavailability [8] is listed as 4-10%.
